Laboratory results taken from ChEMBL document CHEMBL3046648, “Herbicidally Active N-(1-Arylethenyl)-2-chloroacetamides Bearing an Alkyloxyalkyl Moiety” (1991).

Tests used:
Assay type in all cases: functional
[1] = Herbicidal activity against annual broad-leaf weeds assessed as killing at 10 g/a at 25 degC measured after 3 weeks
[2] = system: Pontederia vaginalis; experiment: Herbicidal activity against Monochoria vaginalis assessed as killing at 10 g/a at 25 degC measured after 3 weeks
[3] = system: Schoenoplectiella juncoides; experiment: Herbicidal activity against Schoenoplectiella juncoides assessed as killing at 10 g/a at 25 degC measured after 3 weeks
[4] = system: Cyperus difformis; experiment: Herbicidal activity against Cyperus difformis assessed as killing at 10 g/a at 25 degC measured after 3 weeks
[5] = system: Echinochloa oryzicola; experiment: Herbicidal activity against Echinochloa oryzicola assessed as killing at 10 g/a at 25 degC measured after 3 weeks
[6] = Herbicidal activity against annual broad-leaf weeds assessed as killing at 1 g/a at 25 degC measured after 3 weeks
[7] = system: Pontederia vaginalis; experiment: Herbicidal activity against Monochoria vaginalis assessed as killing at 1 g/a at 25 degC measured after 3 weeks
[8] = system: Schoenoplectiella juncoides; experiment: Herbicidal activity against Schoenoplectiella juncoides assessed as killing at 1 g/a at 25 degC measured after 3 weeks
[9] = system: Cyperus difformis; experiment: Herbicidal activity against Cyperus difformis assessed as killing at 1 g/a at 25 degC measured after 3 weeks
[10] = system: Echinochloa oryzicola; experiment: Herbicidal activity against Echinochloa oryzicola assessed as killing at 1 g/a at 25 degC measured after 3 weeks

Compound	Activity [1] [%]	Activity [2] [%]	Activity [3] [%]	Activity [4] [%]	Activity [5] [%]	Activity [6] [%]	Activity [7] [%]	Activity [8] [%]	Activity [9] [%]	Activity [10] [%]
CCCCC=C(c1ccccc1)N(CCOC)C(=O)CCl	80	100	100	80	80	–	–	–	–	–
C=CCOCC(C)N(C(=O)CCl)C(=C(C)C)c1ccccc1 (centres undefined)	100	100	100	100	100	100	40	60	60	40
COCCCN(C(=O)CCl)C(=C(C)C)c1ccccc1	100	100	100	100	100	0	100	40	60	60
C=CCOCCN(C(=O)CCl)C(=C(C)C)c1ccccc1	100	100	100	100	100	100	100	100	100	100
COCCN(C(=O)CCl)C(=C(C)C)c1cccc(Oc2ccccc2)c1	100	100	60	100	100	40	0	60	80	100
COCCN(C(=O)CCl)C(=C1CCCCC1)c1ccccc1	80	100	100	100	100	60	0	0	0	20
C#CCOCCN(C(=O)CCl)C(=C(C)C)c1ccccc1	100	100	100	100	100	100	100	80	100	100
CCOC(CN(C(=O)CCl)C(=C(C)C)c1ccccc1)OCC	100	100	100	100	100	–	0	0	40	0
COCCN(C(=O)CCl)C(=C(C)C)c1ccc(C)o1	100	100	100	100	100	–	–	–	–	–
COCCN(C(=O)CCl)C(=C(C)C)c1ccccc1OC	–	100	100	80	100	0	0	0	0	0
COCCN(C(=O)CCl)C(=C(C)C)c1cccc(Oc2ccc(Cl)cc2)c1	100	100	80	100	100	–	–	–	–	–
CC(C)=C(c1ccccc1)N(CCOCC(F)(F)F)C(=O)CCl	60	60	80	100	100	–	–	–	–	–
COC(=O)C(C)N(C(=O)CCl)C(=C(C)C)c1ccccc1 (centres undefined)	80	80	100	80	100	–	–	–	–	–
COCCN(C(=O)CCl)C(=C(C)C)c1ccc(OC)c(OC)c1	100	100	100	100	100	–	60	60	80	80
CCCCOCN(C(=O)CCl)c1c(CC)cccc1CC [BUTACHLOR]	100	100	100	100	100	–	–	–	–	–
C/C=C/COCCN(C(=O)CCl)C(=C(C)C)c1ccccc1	80	100	100	100	100	–	–	–	–	–
CSCCN(C(=O)CCl)C(=C(C)C)c1ccccc1	0	0	20	0	60	–	–	–	–	–
CCOC(=O)CN(C(=O)CCl)C(=C(C)C)c1ccccc1	80	40	40	80	100	–	–	–	–	–
COCCN(C(=O)CCl)C(=C(C)C)c1cc(C(C)C)ccc1C	100	100	100	100	100	–	0	0	0	60
CCCCCOCCN(C(=O)CCl)C(=C(C)C)c1ccccc1	80	0	60	80	80	–	–	–	–	–
CC(C)=C(c1ccccc1)N(CCCOC(C)C)C(=O)CCl	100	100	100	100	100	–	–	–	–	–
COCCN(C(=O)CCl)C(=C(C)C)c1ccco1	100	100	100	100	100	–	0	40	20	100
COC=C(c1ccccc1)N(CCOC)C(=O)CCl	0	0	40	60	100	–	–	–	–	–
CCCOCCN(C(=O)CCl)C(=C(C)C)c1ccccc1	100	100	100	100	100	–	100	80	100	100
CCOC(=O)C(C)N(C(=O)CCl)C(=C(C)C)c1ccccc1 (centres undefined)	100	100	100	100	100	–	–	–	–	–
C=C(c1ccccc1)N(CCOC)C(=O)CCl	80	40	60	80	100	–	–	–	–	–
CCOC(=O)C(CC)N(C(=O)CCl)C(=C(C)C)c1ccccc1 (centres undefined)	80	40	60	40	80	–	–	–	–	–
CC(C)=C(c1ccccc1)N(CCOC/C=C/c1ccccc1)C(=O)CCl	0	0	40	0	20	–	–	–	–	–
COCCN(C(=O)CCl)C(=C(C)C)c1cccc2ccccc12	60	60	60	80	100	–	–	–	–	–
